Laboratory results published in US6593310B1, “Treatment of osteoporosis” (Arthropharm Pty. Ltd., priority 2000, dated 2003).
Blank lines part the entries; values can stand above or below the compound they belong to.

Key:
spinal fracture = conditions: post-menopausal women; cited from earlier work
bone = assay: treatment of mammals with polysulfated polysaccharides, effect on bone; format: in vivo

Compound: NCCCC(O)(P(=O)(O)O)P(=O)(O)O [Fosamax, alendronate]
- reduction of risk of spinal fracture (spinal fracture): ~50%

Compound: calcium pentosan polysulfate
- occurrence or spread of osteoporosis (bone; low dosages producing blood levels of 0.01 to 100 micrograms per ml, low continuous or high pulsed therapy dose): reduces the occurrence or spread of osteoporosis

- effect on bone (bone fragility) (bone; high repeated dosages, mammals): causes bone fragility
Compound: pentosan polysulfate
